SMILES strings stand for the structures. Where a SMILES comes first, the peptide text is derived from it.

Data set [1] can be described thus: Peptide hydrogel formation, vial-inverting method. It counts as physicochemical. Also noted: key to EXP / GELATION: 0: no hydrogel; 1: hydrogel. To be noted: for State: ultrasonication, standing 48 h; for Concentration: concentration at which the state was recorded: lowest of 30, 60, 90, 120 mM that gave a gel, 120 mM for non-gelating peptides; for GELATION: 1 = hydrogel, 0 = no hydrogel. The essentials:
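Gelation judged by vial inversion, a non-flowing self-supporting sample counting as hydrogel, after 48 h standing. Peptide in water at 30 mM first, escalating to 60, 90 and 120 mM if no gel; pH set to 6.5–8.5 by stepwise 1 N NaOH, each step sonicated briefly.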

A short description of data set [2]: Transmission electron microscope (negative staining) of peptide assemblies. The conditions noted are these: for Morphology: TEM, negative staining with uranyl acetate, 120 kV.
Experimental: We used the negative staining technique to observe the morphologies formed by peptides. A micropipette was used to load 10 μL of sample solution to a carbon-coated copper grid, and we used a piece of filter paper to remove the excess solution. After rinsing the grid with the deionized water, we used uranyl acetate to stain the sample for 1 minute and then rinsed the grid with deionized water again.
[3] abbreviates: 30 mM peptide in ultrapure water, pH adjusted to 6.5-8.5 with 1 N NaOH, vial-inverting method, concentration raised 30/60/90/120 mM until gelation.
Where [4] appears, read: peptide concentration 30 mM, vial-inverting method.
Where [5] appears, read: 90 mM peptide in ultrapure water, pH 6.5-8.5 (1 N NaOH), vial-inverting method, no gel at lower concentrations.
Where [6] appears, read: peptide concentration 90 mM, vial-inverting method.
Where [7] appears, read: 120 mM peptide (highest tested) in ultrapure water, pH 6.5-8.5 (1 N NaOH), vial-inverting method, precipitate, sol, suspension = no gel.
Where [8] appears, read: peptide concentration 120 mM, vial-inverting method.
[9] abbreviates: 60 mM peptide in ultrapure water, pH 6.5-8.5 (1 N NaOH), vial-inverting method, no gel at 30 mM.
Setting [10] is: peptide concentration 60 mM, vial-inverting method.

Turning to `CC(C)C[C@H](N)C(=O)N[C@@H](Cc1c[nH]c2ccccc12)C(=O)N[C@@H](Cc1ccccc1)C(=O)N[C@@H](Cc1c[nH]c2ccccc12)C(=O)O` [LWFW] (H-LWFW-OH), the State result in data set [1] (setting [3]) was “gel”. In data set [1], the “Concentration” value is 30000 µM. The “CONCENTRATION (at which the hydrogel formed)” value in data set [1] (hydrogel-forming peptides only, vial-inverting method) came to 30000 µM. Further, in data set [1] (setting [4]), the GELATION was found to be 1. Further, the Morphology entry in data set [2] (line of the table gives 30 mM) is recorded as “sphere”.

With `CC(C)C[C@H](N)C(=O)N[C@@H](Cc1c[nH]c2ccccc12)C(=O)N[C@@H](Cc1c[nH]c2ccccc12)C(=O)N[C@@H](Cc1ccccc1)C(=O)O` [LWWF] (H-LWWF-OH), the State result in data set [1] (setting [3]) is “gel”. Also, the “Concentration” value in data set [1] came to 30000 µM. Besides, the GELATION in data set [1] (setting [4]) turned out to be 1. Moreover, the Morphology result in data set [2] (line of the table gives 30 mM) is “aggregates”.

As for `CSCC[C@H](NC(=O)[C@@H](N)CCSC)C(=O)N[C@@H](CC(C)C)C(=O)N[C@@H](CC(C)C)C(=O)O` [MMLL] (H-MMLL-OH), in data set [1] (setting [5]), the State result is given as “gel”. Further, the “Concentration” value in data set [1] came out at 90000 µM. In data set [1] (setting [6]), this molecule returned a GELATION of 1. Further, the Morphology entry in data set [2] (line of the table gives 90 mM) is given as “sheet”.

For `CSCC[C@H](NC(=O)[C@H](CCSC)NC(=O)[C@H](CCSC)NC(=O)[C@@H](N)CCSC)C(=O)O` [MMMM] (H-MMMM-OH), the State entry in data set [1] (setting [7]) is listed as “gel”. Also, the “Concentration” value in data set [1] is 120000 µM. In data set [1] (setting [8]), this molecule displayed a GELATION of 1. Moreover, the Morphology entry in data set [2] (line of the table gives 120 mM) was “hybrid(sphere+fibre)”.

`CSCC[C@H](NC(=O)[C@@H](N)CCSC)C(=O)N[C@H](C(=O)N[C@H](C(=O)O)C(C)C)C(C)C` [MMVV] (H-MMVV-OH): in data set [1] (setting [3]), the State entry is “gel”. Besides, in data set [1], the “Concentration” value was 30000 µM. The molecule further returned a GELATION in data set [1] (setting [4]) of 1. Further, the Morphology entry in data set [2] (line of the table gives 30 mM) is listed as “particle”.

Turning to `CSCC[C@H](NC(=O)[C@@H](N)CCSC)C(=O)N[C@@H](Cc1ccc(O)cc1)C(=O)N[C@@H](Cc1ccc(O)cc1)C(=O)O` [MMYY] (H-MMYY-OH), the State result in data set [1] (setting [7]) was “suspension”. The “Concentration” value in data set [1] turned out to be 120000 µM. In data set [1] (setting [8]), this molecule returned a GELATION of 0. In data set [2] (line of the table gives 120 mM), the Morphology result is “particle”.

Take `CSCC[C@H](N)C(=O)N[C@H](C(=O)N[C@@H](Cc1ccccc1)C(=O)N1CCC[C@H]1C(=O)O)C(C)C` [MVFP] (H-MVFP-OH): in data set [1] (setting [9]), the State entry is given as “gel”. In addition, the “Concentration” value in data set [1] stood at 60000 µM. In addition, the GELATION in data set [1] (setting [10]) was 1. Moreover, the Morphology result in data set [2] (line of the table gives 60 mM) was “fibre”.

On to `CSCC[C@H](N)C(=O)N[C@H](C(=O)N[C@@H](CCC(N)=O)C(=O)NCC(=O)O)C(C)C` [MVQG] (H-MVQG-OH), for which the State result in data set [1] (setting [7]) is listed as “suspension”. The “Concentration” value in data set [1] stood at 120000 µM. For the same molecule, in data set [1] (setting [8]), the GELATION came out at 0. The Morphology entry in data set [2] (line of the table gives 120 mM) is given as “aggregates”.

As to `NC(=O)C[C@H](NC(=O)[C@H](CC(N)=O)NC(=O)[C@H](CC(N)=O)NC(=O)[C@@H](N)CC(N)=O)C(=O)O` [NNNN] (H-NNNN-OH), in data set [1] (setting [7]), the State entry was “sol”. For the same molecule, the “Concentration” value in data set [1] turned out to be 120000 µM. Besides, the GELATION in data set [1] (setting [8]) is reported as 0. In data set [2] (line of the table gives 120 mM), the Morphology result was “aggregates”.

Regarding `CC[C@H](C)[C@H](NC(=O)[C@@H](NC(=O)[C@@H](N)CC(N)=O)[C@@H](C)O)C(=O)N[C@@H](Cc1ccccc1)C(=O)O` [NTIF] (H-NTIF-OH), the State entry in data set [1] (setting [9]) is listed as “gel”. Also, the “Concentration” value in data set [1] was 60000 µM. The molecule also gave a GELATION in data set [1] (setting [10]) of 1. Moreover, in data set [2] (line of the table gives 60 mM), the Morphology result was “fibre”.

Consider `CC(C)[C@H](NC(=O)[C@@H](N)CC(N)=O)C(=O)N[C@@H](Cc1ccccc1)C(=O)N[C@@H](Cc1c[nH]cn1)C(=O)O` [NVFH] (H-NVFH-OH), for which, in data set [1] (setting [7]), the State entry was “suspension”. Further, in data set [1], the “Concentration” value is 120000 µM. The GELATION in data set [1] (setting [8]) worked out at 0. Besides, the Morphology entry in data set [2] (line of the table gives 120 mM) is “aggregates”.

For `NC(=O)C[C@H](N)C(=O)N[C@@H](Cc1c[nH]c2ccccc12)C(=O)N[C@@H](Cc1c[nH]c2ccccc12)C(=O)N[C@@H](Cc1ccccc1)C(=O)O` [NWWF] (H-NWWF-OH), the State entry in data set [1] (setting [3]) was “gel”. For the same molecule, the “Concentration” value in data set [1] turned out to be 30000 µM. This molecule also showed a GELATION in data set [1] (setting [4]) of 1. The Morphology entry in data set [2] (line of the table gives 30 mM) was “sphere”.

`O=C(CNC(=O)[C@@H]1CCCN1)N[C@@H](Cc1c[nH]c2ccccc12)C(=O)N[C@@H](Cc1c[nH]c2ccccc12)C(=O)O` [PGWW] (H-PGWW-OH): the State entry in data set [1] (setting [7]) is “sol”. In data set [1], the “Concentration” value is 120000 µM. This molecule also yielded a GELATION in data set [1] (setting [8]) of 0. Besides, the Morphology entry in data set [2] (line of the table gives 120 mM) is reported as “aggregates”. The “morphology by TEM (in words)” value in data set [2] (aqueous solution or hydrogel, negative staining) is given as “aggregates with different sizes”.

On to `CC[C@H](C)[C@H](NC(=O)[C@@H]1CCCN1)C(=O)N[C@@H](Cc1ccccc1)C(=O)N[C@@H](Cc1ccc(O)cc1)C(=O)O` [PIFY] (H-PIFY-OH), for which the State entry in data set [1] (setting [3]) is given as “gel”. The “Concentration” value in data set [1] worked out at 30000 µM. This molecule also showed a GELATION in data set [1] (setting [4]) of 1. For the same molecule, in data set [2] (line of the table gives 30 mM), the Morphology result was “sphere”.

As to `CSCC[C@H](NC(=O)[C@@H]1CCCN1)C(=O)N[C@@H](Cc1ccccc1)C(=O)N[C@@H](Cc1ccc(O)cc1)C(=O)O` [PMFY] (H-PMFY-OH), the State entry in data set [1] (setting [9]) is “gel”. Besides, the “Concentration” value in data set [1] amounted to 60000 µM. In addition, the GELATION in data set [1] (setting [10]) came out at 1. The Morphology result in data set [2] (line of the table gives 60 mM) is reported as “sheet”.

As for `O=C(O)[C@@H]1CCCN1C(=O)[C@@H]1CCCN1C(=O)[C@@H]1CCCN1C(=O)[C@@H]1CCCN1` [PPPP] (H-PPPP-OH), the State entry in data set [1] (setting [7]) was “suspension”. The “Concentration” value in data set [1] turned out to be 120000 µM. Further, in data set [1] (setting [8]), the GELATION came out at 0. In addition, in data set [2] (line of the table gives 120 mM), the Morphology entry is “particle”.

Take `CC(C)[C@H](NC(=O)[C@@H]1CCCN1)C(=O)N[C@@H](Cc1ccccc1)C(=O)N[C@@H](Cc1c[nH]c2ccccc12)C(=O)O` [PVFW] (H-PVFW-OH): in data set [1] (setting [9]), the State result is “gel”. Moreover, the “Concentration” value in data set [1] is 60000 µM. The molecule also registered a GELATION in data set [1] (setting [10]) of 1. Moreover, in data set [2] (line of the table gives 60 mM), the Morphology result is reported as “hybrid(needle+fibre)”.

On to `CC(C)[C@H](NC(=O)[C@@H]1CCCN1)C(=O)N[C@@H](Cc1ccccc1)C(=O)N[C@@H](Cc1ccc(O)cc1)C(=O)O` [PVFY] (H-PVFY-OH), for which the State result in data set [1] (setting [3]) is “gel”. Besides, the “Concentration” value in data set [1] is 30000 µM. Besides, the GELATION in data set [1] (setting [4]) was 1. Moreover, in data set [2] (line of the table gives 30 mM), the Morphology entry was “needle”.

As for `CC[C@H](C)[C@H](NC(=O)[C@@H](NC(=O)[C@@H](NC(=O)[C@@H]1CCCN1)C(C)C)[C@@H](C)CC)C(=O)O` [PVII] (H-PVII-OH), the State result in data set [1] (setting [5]) is given as “gel”. For the same molecule, in data set [1], the “Concentration” value was determined as 90000 µM. Also, the GELATION in data set [1] (setting [6]) was found to be 1. Moreover, the Morphology result in data set [2] (line of the table gives 90 mM) is recorded as “fibre”.

Consider `O=C(O)[C@H](CS)NC(=O)[C@H](Cc1c[nH]c2ccccc12)NC(=O)[C@H](Cc1c[nH]c2ccccc12)NC(=O)[C@@H]1CCCN1` [PWWC] (H-PWWC-OH), for which, in data set [1] (setting [7]), the State result is listed as “suspension”. Also, the “Concentration” value in data set [1] is 120000 µM. Further, in data set [1] (setting [8]), the GELATION was 0. Also, the Morphology entry in data set [2] (line of the table gives 120 mM) was “aggregates”.

On to `O=C(O)[C@H](Cc1ccc(O)cc1)NC(=O)[C@H](Cc1c[nH]c2ccccc12)NC(=O)[C@H](Cc1c[nH]c2ccccc12)NC(=O)[C@@H]1CCCN1` [PWWY] (H-PWWY-OH), for which the State entry in data set [1] (setting [7]) was “sol”. Also, the “Concentration” value in data set [1] was determined as 120000 µM. The GELATION in data set [1] (setting [8]) was found to be 0. Besides, the Morphology entry in data set [2] (line of the table gives 120 mM) was “aggregates”.

Values taken from PMC10313671, “Accelerating the prediction and discovery of peptide hydrogels with human-in-the-loop” (Nature Communications, 2023).
